Source: patent publication US20220000870A1, “TREATMENT OF CANCER” (MingSight Pharmaceuticals, Inc., priority 2016, published 2022)

Tests used:
HBL1 cells [1] = assay: IL-6 assay (ELISA of supernatant); type: cell-based; conditions: CD79 mutant, 48 hours, data not shown
OCI-Ly3 cells [2] = assay: IL-6 assay (ELISA of supernatant); type: cell-based; conditions: OCI-Ly3 cells lacking activating CD79 mutations, 48 hours
Description: (§1) TMD8 cells were grown in MEM media supplemented with 10% fetal calf serum (FCS), non-essential vitamin mix, and penicillin-streptomycin antibiotics (pen-strep). HBL1 cells were grown in RPMI-1640 media supplemented with 10% FCS and pen-strep. OCI-Ly3 cells were grown in DMEM media with 15% FCS, non-essential vitamin mix, pen-strep, and 25 mM HEPES buffer. Cells were maintained in suspension culture, fed twice weekly, and split 1:3 approximately every two weeks (TMD8, OCI-Ly3) or weekly (HBL1).
(§2) Cells were harvested via centrifugation and resuspended twice to rinse the media of any IL-6. Cells were then plated in 96 well plates at 5×10^5 cells per well and exposed to increasing concentrations of Compound A, sotrastaurin, or media containing 0.1% DMSO (negative control). For each cell type, experiments were performed in the media used for growth and maintenance. Cells were allowed to grow for 48 hours after plating in the presence of inhibitors. Following compound exposure, cells were pelleted in the 96 well plate, supernatant was removed, and the concentration of IL-6 in the supernatant was determined using R&D Systems Haman IL-6 Quantikine® ELISA Kit (D6050) according to manufacturer's instructions.

TMD8 cells [3] = assay: IL-6 assay (ELISA of supernatant); type: cell-based; conditions: for Inhibition of IL-6 production: TMD8 cells, CD79 mutant, 48 hours
Description: as §1, §2

OCI-Ly3 cells [4] = assay: Cell proliferation and survival assay (MTT); type: cell-based; conditions: 96 hours
Description: (§3) TMD8 cells were grown in MEM media supplemented with 10% fetal calf serum (FCS), non-essential vitamin mix, and penicillin-streptomycin antibiotics (pen-strep). HBL1 cells were grown in RPMI-1640 media supplemented with 10% FCS and pen-strep. OCI-Ly3 cells were grown in DMEM media with 15% FCS, non-essential vitamin mix, pen-strep, and 25 mM HEPES buffer. Cells were maintained in suspension culture, fed twice weekly, and split 1:3 approximately every two weeks (TMD8, OCI-Ly3) or weekly (HBL1). Cells were cultured and maintained as described above, with cells always fed on the day prior to assay. Proliferation and survival of cells was quantified using an MTT assay kit according to manufacturer's instructions (Cell Proliferation Kit 1, Roche Diagnostics, Cat. No. 11 465 007 001). Experiments were performed in the same media used by each cell type for growth and maintenance. Cells (5×10^4) were plated in 96 well plates and allowed to grow for 96 hours in the presence of inhibitors. After the exposure period was completed, MTT reagent was added for 3-4 hours. The MTT solubilization reagent was then added to stop the reaction and cells were incubated overnight at 37° C. The plate read the next day according to the kit instructions.

TMD8 cells [5] = assay: Cell proliferation and survival assay (MTT); type: cell-based; conditions: for Inhibition of cell proliferation and survival: TMD8 cells, MTT, 96 hours
Description: as §3

Human PKC delta = Human PKC delta (Homo sapiens, UniProt Q05655); assay: Inhibition of PKC isoforms, in vitro assay; type: biochemical
Excerpt: The methods for these determinations have been described (Grant, et al. 2010, Eur J Pharmacol. 627:16-25).

TMD8 cells [6] = assay: Mouse xenograph model of DLBCL; type: in vivo, SCID mice
Description: To test the efficacy of Compound A in vivo, TMD8 cells were grown and subcutaneously injected into SCID mice. Large scale suspension culture of TMD8 cells was performed in T250 flasks, where cells were expanded weekly. Animals (n=24) were inoculated with 10×10^6 cells (10×10^6 cells in 100 μL volume of 50% Matrigel®) subcutaneously in the animal's right flank.

HBL1 cells [7] = assay: Cell proliferation and survival assay (MTT); type: cell-based; conditions: 96 hours, data not shown
circulating lymphocytes = assay: Peripheral lymphocyte levels, multiple ascending dose study; type: in vivo, human; conditions: healthy humans, 50, 100, 150, 200 mg BID, 14 days
[8] = 120 mg/kg BID, SCID mice with TMD8 tumors

Chain of Human PKC delta (Q05655 whole entry, canonical isoform): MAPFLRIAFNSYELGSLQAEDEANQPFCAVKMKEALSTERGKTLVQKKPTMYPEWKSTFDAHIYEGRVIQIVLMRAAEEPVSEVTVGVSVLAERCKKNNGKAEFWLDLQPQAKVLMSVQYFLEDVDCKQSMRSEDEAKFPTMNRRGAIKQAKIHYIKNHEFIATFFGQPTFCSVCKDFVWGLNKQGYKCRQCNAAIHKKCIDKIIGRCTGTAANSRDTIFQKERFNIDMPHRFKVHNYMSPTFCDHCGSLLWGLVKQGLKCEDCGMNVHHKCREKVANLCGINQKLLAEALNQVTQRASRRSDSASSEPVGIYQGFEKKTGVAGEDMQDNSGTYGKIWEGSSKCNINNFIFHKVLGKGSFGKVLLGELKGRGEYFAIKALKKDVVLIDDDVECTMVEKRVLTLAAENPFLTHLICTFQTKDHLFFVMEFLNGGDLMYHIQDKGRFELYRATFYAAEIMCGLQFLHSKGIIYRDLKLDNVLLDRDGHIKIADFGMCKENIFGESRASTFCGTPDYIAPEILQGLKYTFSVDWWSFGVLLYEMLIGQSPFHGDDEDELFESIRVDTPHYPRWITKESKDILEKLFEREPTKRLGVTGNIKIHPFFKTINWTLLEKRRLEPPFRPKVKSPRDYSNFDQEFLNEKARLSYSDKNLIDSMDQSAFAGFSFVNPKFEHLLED

Mean weight of vehicle treated group greater than Compound A treated animals (TMD8 cells [6]; 120 mg/kg BID) | SMILES | Inhibition of IL-6 production (HBL1 cells [1]) | Inhibition of IL-6 production (OCI-Ly3 cells [2]) | Potency in IL-6 assay compared to sotrastaurin (TMD8 cells [3]) | Inhibition of IL-6 production (TMD8 cells [3]) | Inhibition of cell proliferation and survival (OCI-Ly3 cells [4]) | Potency in cell proliferation assay compared to sotrastaurin (TMD8 cells [5]) | Inhibition of cell proliferation and survival (TMD8 cells [5]) | Inhibition of PKC delta (in words) (Human PKC delta) | Body weight change from day 24-28 (TMD8 cells [6]; [8]) | Body weight, first 10 days of treatment (TMD8 cells [6]; [8]) | Tumor growth (in words) (TMD8 cells [6]; study days 20 to 28, 120 mg/kg BID) | Inhibition of cell proliferation and survival (HBL1 cells [7]) | Number of circulating lymphocytes (circulating lymphocytes)
1.8 g | Cc1ncc(F)c(Nc2n[nH]c3c2CN(C(=O)N2C[C@@H](C)N(CC4CCOCC4)C[C@@H]2C)C3(C)C)n1 [Compound A, 5-{[(2S,5R)-2,5-dimethyl-4-(tetrahydro-2H-pyran-4-ylmethyl)piperazin-1-yl]carbonyl}-N-(5-fluoro-2-methylpyrimidin-4-yl)-6,6-dimethyl-1,4,5,6-tetrahydropyrrolo[3,4-c]pyrazol-3-amine] | dose-dependent inhibition | not affected | slightly more potent | dose-dependent inhibition | not affected by either compound except at the highest doses tested | modestly more potent | dose-dependent inhibition | does not inhibit PKC delta to any appreciable degree | no increase in body weight | steady, slow increase | no appreciable amounts of tumor growth | dose-dependent inhibition | dose dependent increase
– | CN1CCN(c2nc(C3=C(c4c[nH]c5ccccc45)C(=O)NC3=O)c3ccccc3n2)CC1 [sotrastaurin, reference compound] | – | not affected | – | dose dependent inhibition | not affected by either compound except at the highest doses tested | – | dose dependent inhibition | – | – | – | – | – | –
